Laboratory results from US8952024B2, “Herbicidal pyrimidone derivatives” (E I du Pont de Nemours and Company, priority 2009, dated 2015).

Columns and labels:
Assay in all cases: Test B pre-/postemergence plant response
Type in all cases: in vivo
corn (Zea mays) = conditions: for Corn plant response rating (0 to 100 scale): 62 g ai/ha, 0 is no effect, 13 to 15 days
How it was run: (§1)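 Seeds were sown in loam soil/sand blend and treated preemergence with compound in non-phytotoxic solvent mixture containing surfactant; postemergence sprays, same formulation, went onto plants 2 to 18 cm (1- to 4-leaf stage) in peat-based planting medium. Greenhouse 13 to 15 days, then visual rating versus untreated controls, 0 (no effect) to 100 (complete control).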

[1] = system: ragweed (common ragweed, Ambrosia elatior); conditions: for Ragweed plant response rating (0 to 100 scale): 62 g ai/ha, 0 is no effect, 13 to 15 days
How it was run: as §1

soybean (Glycine max) = conditions: for Soybean plant response rating (0 to 100 scale): 62 g ai/ha, 0 is no effect, 13 to 15 days
How it was run: as §1

[2] = system: goosegrass (Eleusine indica); conditions: for Goosegrass plant response rating (0 to 100 scale): 62 g ai/ha, 0 is no effect, 13 to 15 days
How it was run: as §1

[3] = system: morningglory (Ipomoea coccinea); conditions: for Morningglory plant response rating (0 to 100 scale): 62 g ai/ha, 0 is no effect, 13 to 15 days
How it was run: as §1

[4] = system: johnsongrass (Sorghum halepense); conditions: for Johnsongrass plant response rating (0 to 100 scale): 62 g ai/ha, 0 is no effect, 13 to 15 days
How it was run: as §1

[5] = system: velvetleaf (Abutilon theophrasti); conditions: for Velvetleaf plant response rating (0 to 100 scale): 62 g ai/ha, 0 is no effect, 13 to 15 days
How it was run: as §1

[6] = system: cocklebur (Xanthium strumarium); conditions: for Cocklebur plant response rating (0 to 100 scale): 62 g ai/ha, 0 is no effect, 13 to 15 days
How it was run: as §1

[7] = system: large crabgrass (Digitaria sanguinalis); conditions: for Crabgrass, Large plant response rating (0 to 100 scale): 62 g ai/ha, 0 is no effect, 13 to 15 days
How it was run: as §1

[8] = system: Italian ryegrass (Lolium multiflorum); conditions: for Ryegrass, Italian plant response rating (0 to 100 scale): 62 g ai/ha, 0 is no effect, 13 to 15 days
How it was run: as §1

[9] = system: giant foxtail (Setaria faberii); conditions: for Foxtail, Giant plant response rating (0 to 100 scale): 62 g ai/ha, 0 is no effect, 13 to 15 days
How it was run: as §1

[10] = system: green foxtail (Setaria viridis); conditions: for Foxtail, Green plant response rating (0 to 100 scale): 62 g ai/ha, 0 is no effect, 13 to 15 days
How it was run: as §1

[11] = system: blackgrass (Alopecurus myosuroides); conditions: for Blackgrass plant response rating (0 to 100 scale): 62 g ai/ha, 0 is no effect, 13 to 15 days
How it was run: as §1

kochia (Kochia scoparia) = conditions: for Kochia plant response rating (0 to 100 scale): 62 g ai/ha, 0 is no effect, 13 to 15 days
How it was run: as §1

[12] = 31 g ai/ha, postemergence, scale 0 to 100, 0 is no effect, 100 is complete control
[13] = postemergence, 100 is complete control
[14] = Postemergence, 125 g ai/ha, visual rating after 13 to 15 days, scale 0 (no effect) to 100 (complete control)
[15] = Postemergence, 250 g ai/ha, scale 0 to 100 (0 no effect, 100 complete control)

## Cc1ccccc1-c1ncc(C(=O)C2=C(O)CCCC2=O)c(=O)n1-c1ccccc1 [Compound 82]
Corn (Zea mays); [12]
  Plant response rating, Corn: 0
Corn (Zea mays); [13]
  Corn plant response rating (0 to 100 scale): 5
Corn (Zea mays); [14]
  Plant response rating, Corn: 5
Corn (Zea mays); [15]
  Plant response rating, Corn: 15
[1]; [12]
  Plant response rating, Ragweed: 75
[1]; [13]
  Ragweed plant response rating (0 to 100 scale): 80
[1]; [14]
  Plant response rating, Ragweed: 95
[1]; [15]
  Plant response rating, Ragweed: 95
Soybean (Glycine max); [12]
  Plant response rating, Soybean: 75
Soybean (Glycine max); [13]
  Soybean plant response rating (0 to 100 scale): 90
Soybean (Glycine max); [14]
  Plant response rating, Soybean: 95
Soybean (Glycine max); [15]
  Plant response rating, Soybean: 98
[2]; [12]
  Plant response rating, Goosegrass: 75
[2]; [13]
  Goosegrass plant response rating (0 to 100 scale): 75
[2]; [14]
  Plant response rating, Goosegrass: 80
[2]; [15]
  Plant response rating, Goosegrass: 85
[3]; [12]
  Plant response rating, Morningglory: 65
[3]; [13]
  Morningglory plant response rating (0 to 100 scale): 100
[3]; [14]
  Plant response rating, Morningglory: 100
[3]; [15]
  Plant response rating, Morningglory: 100
[4]; [12]
  Plant response rating, Johnsongrass: 65
[4]; [13]
  Johnsongrass plant response rating (0 to 100 scale): 80
[4]; [14]
  Plant response rating, Johnsongrass: 80
[4]; [15]
  Plant response rating, Johnsongrass: 95
[5]; [12]
  Plant response rating, Velvetleaf: 85
[5]; [13]
  Velvetleaf plant response rating (0 to 100 scale): 90
[5]; [14]
  Plant response rating, Velvetleaf: 90
[5]; [15]
  Plant response rating, Velvetleaf: 95
[6]; [12]
  Plant response rating, Cocklebur: 85
[6]; [13]
  Cocklebur plant response rating (0 to 100 scale): 90
[6]; [14]
  Plant response rating, Cocklebur: 95
[6]; [15]
  Plant response rating, Cocklebur: 100
[7]; [12]
  Plant response rating, Crabgrass, Large: 70
[7]; [13]
  Crabgrass, Large plant response rating (0 to 100 scale): 75
[7]; [14]
  Plant response rating, Crabgrass, Large: 80
[7]; [15]
  Plant response rating, Crabgrass, Large: 90
[8]; [12]
  Plant response rating, Ryegrass, Italian: 0
[8]; [13]
  Ryegrass, Italian plant response rating (0 to 100 scale): 0
[8]; [14]
  Plant response rating, Ryegrass, Italian: 5
[8]; [15]
  Plant response rating, Ryegrass, Italian: 10
[9]; [12]
  Plant response rating, Foxtail, Giant: 75
[9]; [13]
  Foxtail, Giant plant response rating (0 to 100 scale): 80
[9]; [14]
  Plant response rating, Foxtail, Giant: 95
[9]; [15]
  Plant response rating, Foxtail, Giant: 95
[10]; [12]
  Plant response rating, Foxtail, Green: 60
[10]; [13]
  Foxtail, Green plant response rating (0 to 100 scale): 60
[10]; [14]
  Plant response rating, Foxtail, Green: 85
[10]; [15]
  Plant response rating, Foxtail, Green: 90
[11]; [12]
  Plant response rating, Blackgrass: 0
[11]; [13]
  Blackgrass plant response rating (0 to 100 scale): 0
[11]; [14]
  Plant response rating, Blackgrass: 5
[11]; [15]
  Plant response rating, Blackgrass: 15
Kochia (Kochia scoparia); [12]
  Plant response rating, Kochia: 10
Kochia (Kochia scoparia); [13]
  Kochia plant response rating (0 to 100 scale): 60
Kochia (Kochia scoparia); [14]
  Plant response rating, Kochia: 65
Kochia (Kochia scoparia); [15]
  Plant response rating, Kochia: 75

## CC(C)CC(=O)OC1=C(C(=O)c2cnc(-c3ccccc3)n(-c3ccccc3)c2=O)C(=O)CCC1 [Compound 83]
Corn (Zea mays); [12]
  Plant response rating, Corn: 0
Corn (Zea mays); [13]
  Corn plant response rating (0 to 100 scale): 5
Corn (Zea mays); [14]
  Plant response rating, Corn: 15
Corn (Zea mays); [15]
  Plant response rating, Corn: 25
[1]; [12]
  Plant response rating, Ragweed: 75
[1]; [13]
  Ragweed plant response rating (0 to 100 scale): 80
[1]; [15]
  Plant response rating, Ragweed: 98
Soybean (Glycine max); [12]
  Plant response rating, Soybean: 75
Soybean (Glycine max); [13]
  Soybean plant response rating (0 to 100 scale): 90
Soybean (Glycine max); [15]
  Plant response rating, Soybean: 95
[2]; [12]
  Plant response rating, Goosegrass: 75
[2]; [13]
  Goosegrass plant response rating (0 to 100 scale): 80
[2]; [15]
  Plant response rating, Goosegrass: 95
[3]; [12]
  Plant response rating, Morningglory: 70
[3]; [13]
  Morningglory plant response rating (0 to 100 scale): 75
[3]; [15]
  Plant response rating, Morningglory: 100
[4]; [12]
  Plant response rating, Johnsongrass: 95
[4]; [13]
  Johnsongrass plant response rating (0 to 100 scale): 100
[4]; [15]
  Plant response rating, Johnsongrass: 100
[5]; [12]
  Plant response rating, Velvetleaf: 85
[5]; [13]
  Velvetleaf plant response rating (0 to 100 scale): 90
[5]; [15]
  Plant response rating, Velvetleaf: 100
[6]; [12]
  Plant response rating, Cocklebur: 75
[6]; [13]
  Cocklebur plant response rating (0 to 100 scale): 80
[6]; [14]
  Plant response rating, Cocklebur: 80
[6]; [15]
  Plant response rating, Cocklebur: 90
[7]; [12]
  Plant response rating, Crabgrass, Large: 85
[7]; [13]
  Crabgrass, Large plant response rating (0 to 100 scale): 85
[7]; [14]
  Plant response rating, Crabgrass, Large: 95
[7]; [15]
  Plant response rating, Crabgrass, Large: 98
[8]; [12]
  Plant response rating, Ryegrass, Italian: 0
[8]; [13]
  Ryegrass, Italian plant response rating (0 to 100 scale): 0
[8]; [15]
  Plant response rating, Ryegrass, Italian: 5
[9]; [12]
  Plant response rating, Foxtail, Giant: 80
[9]; [13]
  Foxtail, Giant plant response rating (0 to 100 scale): 95
[9]; [15]
  Plant response rating, Foxtail, Giant: 98
[10]; [12]
  Plant response rating, Foxtail, Green: 90
[10]; [13]
  Foxtail, Green plant response rating (0 to 100 scale): 95
[10]; [15]
  Plant response rating, Foxtail, Green: 98
[11]; [12]
  Plant response rating, Blackgrass: 0
[11]; [13]
  Blackgrass plant response rating (0 to 100 scale): 0
[11]; [14]
  Plant response rating, Blackgrass: 0
[11]; [15]
  Plant response rating, Blackgrass: 0
Kochia (Kochia scoparia); [12]
  Plant response rating, Kochia: 65
Kochia (Kochia scoparia); [13]
  Kochia plant response rating (0 to 100 scale): 75
Kochia (Kochia scoparia); [15]
  Plant response rating, Kochia: 95

## COCCn1c(-c2ccccc2)ncc(C(=O)C2=C(O)CCCC2=O)c1=O [Compound 85]
Corn (Zea mays); [12]
  Plant response rating, Corn: 50
Corn (Zea mays); [13]
  Corn plant response rating (0 to 100 scale): 70
Corn (Zea mays); [14]
  Plant response rating, Corn: 85
Corn (Zea mays); [15]
  Plant response rating, Corn: 85
[1]; [12]
  Plant response rating, Ragweed: 80
[1]; [13]
  Ragweed plant response rating (0 to 100 scale): 85
[1]; [15]
  Plant response rating, Ragweed: 98
Soybean (Glycine max); [12]
  Plant response rating, Soybean: 80
Soybean (Glycine max); [13]
  Soybean plant response rating (0 to 100 scale): 85
Soybean (Glycine max); [15]
  Plant response rating, Soybean: 95
[2]; [12]
  Plant response rating, Goosegrass: 70
[2]; [13]
  Goosegrass plant response rating (0 to 100 scale): 70
[2]; [15]
  Plant response rating, Goosegrass: 85
[3]; [12]
  Plant response rating, Morningglory: 95
[3]; [13]
  Morningglory plant response rating (0 to 100 scale): 100
[3]; [15]
  Plant response rating, Morningglory: 100
[4]; [12]
  Plant response rating, Johnsongrass: 80
[4]; [13]
  Johnsongrass plant response rating (0 to 100 scale): 95
[4]; [15]
  Plant response rating, Johnsongrass: 98
[5]; [12]
  Plant response rating, Velvetleaf: 90
[5]; [13]
  Velvetleaf plant response rating (0 to 100 scale): 98
[5]; [15]
  Plant response rating, Velvetleaf: 98
[6]; [12]
  Plant response rating, Cocklebur: 95
[6]; [13]
  Cocklebur plant response rating (0 to 100 scale): 95
[6]; [14]
  Plant response rating, Cocklebur: 98
[6]; [15]
  Plant response rating, Cocklebur: 98
[7]; [12]
  Plant response rating, Crabgrass, Large: 90
[7]; [13]
  Crabgrass, Large plant response rating (0 to 100 scale): 90
[7]; [14]
  Plant response rating, Crabgrass, Large: 90
[7]; [15]
  Plant response rating, Crabgrass, Large: 95
[8]; [12]
  Plant response rating, Ryegrass, Italian: 0
[8]; [13]
  Ryegrass, Italian plant response rating (0 to 100 scale): 10
[8]; [15]
  Plant response rating, Ryegrass, Italian: 45
[9]; [12]
  Plant response rating, Foxtail, Giant: 75
[9]; [13]
  Foxtail, Giant plant response rating (0 to 100 scale): 80
[9]; [15]
  Plant response rating, Foxtail, Giant: 98
[10]; [12]
  Plant response rating, Foxtail, Green: 80
[10]; [13]
  Foxtail, Green plant response rating (0 to 100 scale): 95
[10]; [15]
  Plant response rating, Foxtail, Green: 98
[11]; [12]
  Plant response rating, Blackgrass: 5
[11]; [13]
  Blackgrass plant response rating (0 to 100 scale): 35
[11]; [14]
  Plant response rating, Blackgrass: 35
[11]; [15]
  Plant response rating, Blackgrass: 50
Kochia (Kochia scoparia); [12]
  Plant response rating, Kochia: 75
Kochia (Kochia scoparia); [13]
  Kochia plant response rating (0 to 100 scale): 85
Kochia (Kochia scoparia); [15]
  Plant response rating, Kochia: 90
